A value given as a limit tells only on which side of the number the result lay.

What is called IC50 is the concentration at which inhibition is half-maximal.

The first experiment deals with HCV replicon RNA replication in human Huh7 hepatoma cells. Briefly: HCV replicon assay (activity levels from either or both of HCV replicon assay 1, Huh7/Clone A RT-qPCR, and assay 2, Huh7 ET luc-ubi-neo/ET). The format is cell-based, Hepatitis C virus (HCV). To be noted: Hepatitis C virus, Huh-7, either or both HCV replicon assays: Huh7/Clone A, 48 hours, 72 hours, Luc activity or RT-PCR, read-out: inhibit HCV replication at IC50 levels or estimated IC50 levels. An excerpt: The HCV replicon assay is a cell-culture system that mimics in vivo HCV replication and provides a system to study HCV replication in vitro. It was created by transfecting cloned viral RNA derived from a consensus HCV genomic sequence into human Huh7 hepatoma cells that are semi-permissive for viral RNA production (Lohmann V., Korner F., Koch J.-O., Herian U., Theilmann L. and Bartenschlager R. (1999). Replication of subgenomic Hepatitis C virus RNAs in a hepatoma cell line. Science 285, 110-113 and Blight K. J., Kolykhalov A. A. and Rice C. M. (2000). Efficient initiation of HCV RNA Replication in cell culture. Science 290, […]). These transfected cell lines contain a subgenomic HCV RNA genome that includes (1) the HCV 5′NTR fused to 12 amino acids of the capsid coding region, (2) the neomycin phosphotransferase gene (Neo) as a selectable marker, (3) the internal ribosome entry site (IRES) from encephalomyocarditis virus (EMCV) that directs translation of HCV non-structural proteins (variously NS2 or NS3 to NS5B), and (4) the 3′ NTR. Replicon-containing cells autonomously and persistently replicate HCV RNA that can be measured quantitatively by real-time qPCR. Therefore, the replicon system facilitates quantitative assessment of anti-viral activity by monitoring changes in HCV RNA replication in a cell-based assay.
HCV replicon-containing cells (Huh7/Clone A) were routinely maintained in Clone A growth medium (DMEM medium [Invitrogen], supplemented with 10% Fetal Bovine Serum, 1% Non Essential Amino Acids and 1 g/L G418). Test compounds were dissolved in dimethyl sulfoxide (DMSO) to make 200× stock solutions for all doses prior to treatment.
For the HCV replicon assay, Huh7/Clone A cells were trypsinized from culture flasks, seeded in 1 ml of Clone A growth medium without G418 at 4×10^4 cells per well in 24-well plates and incubated at 37° C. in a humidified CO2 (5%) incubator overnight. Following overnight incubation, compound solutions were added into wells in the same volume (5 μl of 200× compound stock per well) to give a final DMSO concentration of 0.5%. Three wells on each plate supplemented with 5 μl of DMSO served as untreated controls. For IC50 determinations, compounds were tested at 7 serial dilutions in triplicates from the starting stock solutions. The plates were incubated at 37° C. for 48 hours. After incubation, cells were harvested, transferred to 96-well plates, and subjected to total RNA extraction using the RNA Isolation Kit (RNeasy 96, Qiagen) according to the protocol described by the manufacture's RNeasy 96 Handbook (Qiagen).
Total RNA eluted in 130 μl of RNase-free dH2O was quantitated by the RiboGreen Assay according to the supplier's protocol (Molecular Probe). Briefly, 5 μl of RNA samples were aliquoted in duplicate to a 96-well black microplate and a 96-well TaqMan Optical plate. RNA samples in the black microplate were mixed with 95 μl of diluted RiboGreen:reagent (1:250 dilution in TE buffer) and sample fluorescence was measured using a fluorescence microplate reader at standard fluorescein wavelengths (excitation ˜480 nm, emission ˜520 nm). Ribosomal RNA (Molecular Probe) was used as standard.
TaqMan quantitative PCR (RT-qPCR) was used to quantitate the amount of HCV replicon RNA in each sample. The RT-qPCR reactions were performed in 25 μl on an ABI PRISM 7900 HT Sequence Detection System (Applied Biosystems). The reaction mixture contained 5 μl of total RNA (10-100 ng), 1× TaqMan Buffer A (Applied Biosystems), 5.5 mM MgCl2, 1.2 mM dNTP mix, 0.625 U of AmpliTaq Gold (Applied Biosystems), 5 U of MMLV reverse transcriptase (Promega), 5 U of rRNasin (Promega), 300 nM each of the forward and reverse primers, and 100 nM TaqMan MGB probe. Primers and probe were designed to hybridize to a portion of the neomycin resistance gene (neo) in the replicon and the sequences are as follows: forward primer 5′-GGCTACCTGCCCATTCGA-3′; reverse primer 5′-CCGGCTTCCATCCGAGTAC-3′; MGB probe 5′-CCACCAAGCGAAACA-3′. […]
Turning to `O=c1c(-c2noc(Cc3ccccc3)n2)cn(CC2CCCCC2)c2ccc(O)cc12` [Compound 24, 3-(5-benzyl-[1,2,4]oxadiazol-3-yl)-1-cyclohexylmethyl-6-hydroxy-1H-quinolin-4-one], the IC50 is above 10 µM. Take `O=c1c(-c2noc(Cc3ccccc3)n2)cn(Cc2ccc(Cl)cc2)c2cc(N3CCNCC3)c(F)cc12` [Compound 25, 3-(5-benzyl-[1,2,4]oxadiazol-3-yl)-1-(4-chloro-benzyl)-6-fluoro-7-piperazin-1-yl-1H-quinolin-4-one]: the IC50 is below 2 µM. `O=c1c(-c2noc(Cc3ccccc3)n2)cn(Cc2ccc(Cl)cc2)c2cc(N3CCC(O)CC3)c(F)cc12` [Compound 26, 3-(5-benzyl-[1,2,4]oxadiazol-3-yl)-1-(4-chloro-benzyl)-6-fluoro-7-(4-hydroxy-piperidin-1-yl)-1H-quinolin-4-one]: the IC50 was above 10 µM. On the same count and under the same terms, as for `CC(=O)N1CCN(c2cc3c(cc2F)c(=O)c(-c2noc(Cc4ccccc4)n2)cn3Cc2ccc(Cl)cc2)CC1` [Compound 27, 7-(4-acetyl-piperazin-1-yl)-3-(5-benzyl-[1,2,4]oxadiazol-3-yl)-1-(4-chloro-benzyl)-6-fluoro-1H-quinolin-4-one], the figure is below 2 µM; as for `CN1CCN(c2cc3c(cc2F)c(=O)c(-c2noc(Cc4ccc(F)cc4)n2)cn3Cc2ccc(Cl)cc2)CC1` [Compound 28, 1-(4-chloro-benzyl)-6-fluoro-3-[5-(4-fluoro-benzyl)-[1,2,4]oxadiazol-3-yl]-7-(4-methyl-piperazin-1-yl)-1H-quinolin-4-one], below 2 µM. Consider `CN1CCN(c2cc3c(cc2F)c(=O)c(-c2noc(C(CC(=O)O)c4ccccc4)n2)cn3Cc2ccc(Cl)cc2)CC1` (centres unmarked) [Compound 31, 3-{3-[1-(4-chloro-benzyl)-6-fluoro-7-(4-methyl-piperazin-1-yl)-4-oxo-1,4-dihydro-quinolin-3-yl]-[1,2,4]oxadiazol-5-yl}-3-phenyl-propionic acid], for which the IC50 was above 10 µM. With `CN1CCN(c2cc3c(cc2F)c(=O)c(-c2noc(Cc4ccc(F)cc4F)n2)cn3Cc2ccc(Cl)cc2)CC1` [Compound 32, 1-(4-chloro-benzyl)-3-[5-(2,4-difluoro-benzyl)-[1,2,4]oxadiazol-3-yl]-6-fluoro-7-(4-methyl-piperazin-1-yl)-1H-quinolin-4-one], the IC50 was above 10 µM.

For the molecule `CN1CCN(c2cc3c(cc2F)c(=O)c(-c2noc(Cc4c(F)cccc4F)n2)cn3Cc2ccc(Cl)cc2)CC1` [Compound 33, 1-(4-chloro-benzyl)-3-[5-(2,6-difluoro-benzyl)-[1,2,4]oxadiazol-3-yl]-6-fluoro-7-(4-methyl-piperazin-1-yl)-1H-quinolin-4-one], the IC50 is below 10 µM. Consider `CN1CCN(c2cc3c(cc2F)c(=O)c(-c2noc(Cc4ccc(F)cc4)n2)cn3Cc2ccc(Cl)cc2F)CC1` [Compound 34, 1-(4-chloro-2-fluoro-benzyl)-6-fluoro-3-[5-(4-fluoro-benzyl)-[1,2,4]oxadiazol-3-yl]-7-(4-methyl-piperazin-1-yl)-1H-quinolin-4-one], for which the IC50 was below 2 µM. Consider `CN1CCN(c2cc3c(cc2F)c(=O)c(-c2noc(Cc4ccccc4)n2)cn3Cc2ccc(C(F)(F)F)cc2)CC1` [Compound 36, 3-(5-benzyl-[1,2,4]oxadiazol-3-yl)-6-fluoro-7-(4-methyl-piperazin-1-yl)-1-(4-trifluoromethyl-benzyl)-1H-quinolin-4-one], for which the IC50 was below 2 µM.

Turning to `CN1CCN(c2cc3c(cc2F)c(=O)c(-c2noc(Cc4ccc(F)cc4)n2)cn3Cc2ccc(C(F)(F)F)cc2)CC1` [Compound 37, 6-fluoro-3-[5-(4-fluoro-benzyl)-[1,2,4]oxadiazol-3-yl]-7-(4-methyl-piperazin-1-yl)-1-(4-trifluoromethyl-benzyl)-1H-quinolin-4-one], the IC50 is below 2 µM. For `O=c1c(-c2noc(Cc3ccccc3)n2)cn(Cc2ccc(C(F)(F)F)cc2F)c2cc(N3CCCNCC3)c(F)cc12` [Compound 38, 3-(5-benzyl-[1,2,4]oxadiazol-3-yl)-7-[1,4]diazepan-1-yl-6-fluoro-1-(2-fluoro-4-trifluoromethyl-benzyl)-1H-quinolin-4-one], the IC50 was below 0.5 µM. Take `CCCCCc1nc(-c2cn(Cc3ccc(C(F)(F)F)cc3F)c3cc(N4CCN(C)CC4)c(F)cc3c2=O)no1` [Compound 40, 6-fluoro-1-(2-fluoro-4-trifluoromethyl-benzyl)-7-(4-methyl-piperazin-1-yl)-3-(5-pentyl-[1,2,4]oxadiazol-3-yl)-1H-quinolin-4-one]: the IC50 was below 2 µM. Consider `CN1CCN(c2cc3c(cc2F)c(=O)c(-c2noc(Cc4ccccc4)n2)cn3Cc2c(F)cccc2Cl)CC1` [Compound 41, 3-(5-benzyl-[1,2,4]oxadiazol-3-yl)-1-(2-chloro-6-fluoro-benzyl)-6-fluoro-7-(4-methyl-piperazin-1-yl)-1H-quinolin-4-one], for which the IC50 is above 10 µM. Take `CN1CCN(c2cc3c(cc2F)c(=O)c(-c2noc(Cc4ccc(F)cc4)n2)cn3Cc2c(F)cccc2Cl)CC1` [Compound 42, 1-(2-chloro-6-fluoro-benzyl)-6-fluoro-3-[5-(4-fluoro-benzyl)-[1,2,4]oxadiazol-3-yl]-7-(4-methyl-piperazin-1-yl)-1H-quinolin-4-one]: the IC50 is below 10 µM. Still for that read-out and setting: in the case of `O=C(O)c1ccc2c(c1)c(=O)c(-c1noc(Cc3ccccc3)n1)cn2Cc1ccc(C(F)(F)F)cc1F` [Compound 43, 3-(5-benzyl-[1,2,4]oxadiazol-3-yl)-1-(2-fluoro-4-trifluoromethyl-benzyl)-4-oxo-1,4-dihydro-quinoline-6-carboxylic acid] it was above 10 µM; in that of `CN1CCN(c2cc3c(cc2F)c(=O)c(-c2noc(Cc4ccc(F)cc4)n2)cn3Cc2ccc(F)cc2F)CC1` [Compound 44, 1-(2,4-difluoro-benzyl)-6-fluoro-3-[5-(4-fluoro-benzyl)-[1,2,4]oxadiazol-3-yl]-7-(4-methyl-piperazin-1-yl)-1H-quinolin-4-one], below 2 µM; in that of `CN1CCN(c2cc3c(cc2F)c(=O)c(-c2noc(Cc4ccccc4)n2)cn3Cc2ccccc2F)CC1` [Compound 45, 3-(5-benzyl-[1,2,4]oxadiazol-3-yl)-6-fluoro-1-(2-fluoro-benzyl)-7-(4-methyl-piperazin-1-yl)-1H-quinolin-4-one], below 10 µM. On to `CN1CCN(c2cc3c(cc2F)c(=O)c(-c2noc(Cc4cc(F)cc(F)c4)n2)cn3Cc2ccc(Cl)cc2)CC1` [Compound 46, 1-(4-chloro-benzyl)-3-[5-(3,5-difluoro-benzyl)-[1,2,4]oxadiazol-3-yl]-6-fluoro-7-(4-methyl-piperazin-1-yl)-1H-quinolin-4-one], for which the IC50 was below 10 µM.

Still in this experiment, the particulars now being: either or both HCV replicon assays: Huh7/Clone A, 48 hours, 72 hours, Luc activity or RT-PCR, read-out: inhibit HCV replication at IC50 levels or estimated IC50 levels.
As to `CN1CCN(c2cc3c(cc2F)c(=O)c(-c2noc(Cc4ccccc4)n2)cn3Cc2ccc(C(F)(F)F)cc2F)CC1` [Compound 35, 3-(5-benzyl-[1,2,4]oxadiazol-3-yl)-6-fluoro-1-(2-fluoro-4-trifluoromethyl-benzyl)-7-(4-methyl-piperazin-1-yl)-1H-quinolin-4-one], the IC50 was below 2 µM.

The values above are taken from US20070287699A1, “ANTIVIRAL AGENTS” (ViroBay, Inc., priority 2006, published 2007).
